# Laboratory results reported in US8748415B2 (priority 2011, dated 2014).
# System: recombinant NL4-3 virus (Renilla luciferase in nef, Gag P373S)
# Test: HIV cell culture assay (luciferase activity in MT-2 cells infected with NLRluc recombinant virus)
# Type: cell-based
# Settings: NL43, MT-2 cells infected 4-5 days with NLRluc recombinant virus
# Outline: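 MT-2 cells in RPMI/10% FBS were infected with recombinant NL4-3 (NLRluc), produced by 293T transfection and titered in MT-2 by luciferase. Serial inhibitor dilutions were present throughout a 4–5 day infection. Antiviral activity was quantified as Renilla luciferase signal via a modified Dual Luciferase read.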
Compound,EC50 (numeric value) [nM],EC50 (class symbol) [nM]
"C=C(C)[C@@H]1CC[C@]2(CNCCC(=O)OC)CC[C@]3(C)[C@H](CC[C@@H]4[C@@]5(C)CC=C(c6ccc(C(=O)O)cc6)C(C)(C)[C@@H]5CC[C@]43C)[C@@H]12 [Example 176, 4-((1R,3aS,5aR,5bR,7aR,11aS,11bR,13aR,13bR)-3a-((3-methoxy-3-oxopropylamino)methyl)-5a,5b,8,8,11a-pentamethyl-1-(prop-1-en-2-yl)-2,3,3a,4,5,5a,5b,6,7,7a,8,11,11a,11b,12,13,13a,13b-octadecahydro-1H-cyclopenta[a]chrysen-9-yl)benzoic acid]",14,–
"C=C(C)[C@@H]1CC[C@]2(CNCCN3CCNCC3)CC[C@]3(C)[C@H](CC[C@@H]4[C@@]5(C)CC=C(c6ccc(C(=O)O)cc6)C(C)(C)[C@@H]5CC[C@]43C)[C@@H]12 [Example 8, 4-((1R,3aS,5aR,5bR,7aR,11aS,11bR,13aR,13bR)-5a,5b,8,8,11a-pentamethyl-3a-((2-(piperazin-1-yl)ethylamino)methyl)-1-(prop-1-en-2-yl)-2,3,3a,4,5,5a,5b,6,7,7a,8,11,11a,11b,12,13,13a,13b-octadecahydro-1H-cyclopenta[a]chrysen-9-yl)benzoic acid]",–,< 100
"C=C(C)[C@@H]1CC[C@]2(CNC(=O)C3CC(=O)NC(=O)C3)CC[C@]3(C)[C@H](CC[C@@H]4[C@@]5(C)CC=C(c6ccc(C(=O)O)cc6)C(C)(C)[C@@H]5CC[C@]43C)[C@@H]12 [Example 134, 4-((1R,3aS,5aR,5bR,7aR,11aS,11bR,13aR,13bR)-3a-((2,6-dioxopiperidine-4-carboxamido)methyl)-5a,5b,8,8,11a-pentamethyl-1-(prop-1-en-2-yl)-2,3,3a,4,5,5a,5b,6,7,7a,8,11,11a,11b,12,13,13a,13b-octadecahydro-1H-cyclopenta[a]chrysen-9-yl)benzoic acid]",–,< 100
"C=C(C)[C@@H]1CC[C@]2(CNCCS(C)(=O)=O)CC[C@]3(C)[C@H](CC[C@@H]4[C@@]5(C)CC=C(c6ccc(C(=O)O)cc6)C(C)(C)[C@@H]5CC[C@]43C)[C@@H]12 [Example 41, 4-((1R,3aS,5aR,5bR,7aR,11aS,11bR,13aR,13bR)-5a,5b,8,8,11a-pentamethyl-3a-((2-(methylsulfonyl)ethylamino)methyl)-1-(prop-1-en-2-yl)-2,3,3a,4,5,5a,5b,6,7,7a,8,11,11a,11b,12,13,13a,13b-octadecahydro-1H-cyclopenta[a]chrysen-9-yl)benzoic acid]",–,< 100
"C=C(C)[C@@H]1CC[C@]2(CNC(=O)Nc3ccc(C(=O)OC)cc3)CC[C@]3(C)[C@H](CC[C@@H]4[C@@]5(C)CC=C(c6ccc(C(=O)O)cc6)C(C)(C)[C@@H]5CC[C@]43C)[C@@H]12 [Example 160, 4-((1R,3aS,5aR,5bR,7aR,11aS,11bR,13aR,13bR)-3a-((3-(4-(methoxycarbonyl)phenyl)ureido)methyl)-5a,5b,8,8,11a-pentamethyl-1-(prop-1-en-2-yl)-2,3,3a,4,5,5a,5b,6,7,7a,8,11,11a,11b,12,13,13a,13b-octadecahydro-1H-cyclopenta[a]chrysen-9-yl)benzoic acid]",260,–
"C=C(C)[C@@H]1CC[C@]2(CNC(=O)OCCCN3CCS(=O)(=O)CC3)CC[C@]3(C)[C@H](CC[C@@H]4[C@@]5(C)CC=C(c6ccc(C(=O)O)cc6)C(C)(C)[C@@H]5CC[C@]43C)[C@@H]12 [Example 164, 4-((1R,3aS,5aR,5bR,7aR,11aS,11bR,13aR,13bR)-3a-((((3-(1,1-dioxido-4-thiomorpholinyl)propoxy)carbonyl)amino)methyl)-1-isopropenyl-5a,5b,8,8,11a-pentamethyl-2,3,3a,4,5,5a,5b,6,7,7a,8,11,11a,11b,12,13,13a,13b-octadecahydro-1H-cyclopenta[a]chrysen-9-yl)benzoic acid]",–,< 100
